Values of other authors, collected in patent US20070213318A1, “C[…] WITH IMPROVED BLOOD-BRAIN BARRIER PE[…] THE TREATMENT OF DISEASES ACCOMPANIED BY COGNITIVE IMPAIRMENT” (priority 2006, published 2007).
Where two headings read alike, the source gives them in different places.

What was measured:
[1] = tested on: human nAChR subtypes; conditions: below the concentration range at which AChE inhibition takes place

Compound: COc1ccc2c3c1O[C@H]1C[C@@H](O)C=C[C@@]31CCN(C)C2 [Galanthamine]
- tissue to plasma ratio (T/P) (female rat spleen): ~20
- tissue to plasma ratio (T/P) (male and female rat, kidney): 10-15
- tissue to plasma ratio (T/P) (male and female rat, salivary and adrenal gland): 7-14
- tissue to plasma ratio (T/P) (rat, lung, liver, heart, skeletal muscle and testes): 2-4
- concentrations at which the APL effect is observed [1]: submicromolar concentrations
